Test results reported in patent US20090216010A1, “CRYSTALLINE CARBAPENEM COMPOUND AND PRODUCED METHOD THEREOF” (priority 2008, published 2009).
Read-outs that look alike come from different tables or passages of the source.

Tests used:
[1] = stability during storage of the solid form; assay type: physicochemical; settings: new crystalline form B, compared with non-crystalline form, no data given
[2] = solid form, storage over a long period of time; prior-art forms (EP 126587A, EP 256377, US 4,888,344); cited from earlier work

SMILES	stability during storage [1]	stability during storage ([1]; listed as crystalline carbapenem compound of the present invention)	stability during storage [2]
C[C@@H](O)[C@H]1C(=O)N2C(C(=O)O)=C(S[C@@H]3CN[C@H](C(=O)N(C)C)C3)[C@H](C)[C@H]12 [Compound A in a new crystalline form B, (4R,5S,6S)-3-[[(3S,5S)-5-[(dimethylamino)carbonyl]-3-pyrrolidinyl]thio]-6-[(1R)-1-hydroxyethyl]-4-methyl-7-oxo-1-azabicyclo[3.2.0]hept-2-ene-2-carboxylic acid]	stable for storage	much more stable than carbapenem compound in a non-crystalline form	–
C[C@@H](O)[C@H]1C(=O)N2C(C(=O)O)=C(S[C@@H]3CN[C@H](C(=O)N(C)C)C3)[C@H](C)[C@H]12 [Compound A in such crystalline form A, (4R,5S,6S)-3-[[(3S,5S)-5-[(dimethylamino)carbonyl]-3-pyrrolidinyl]thio]-6-[(1R)-1-hydroxyethyl]-4-methyl-7-oxo-1-azabicyclo[3.2.0]hept-2-ene-2-carboxylic acid]	–	–	much more stable than in a non-crystalline form
C[C@@H](O)[C@H]1C(=O)N2C(C(=O)O)=C(S[C@@H]3CN[C@H](C(=O)N(C)C)C3)[C@H](C)[C@H]12 [Compound A in such non-crystalline form, (4R,5S,6S)-3-[[(3S,5S)-5-[(dimethylamino)carbonyl]-3-pyrrolidinyl]thio]-6-[(1R)-1-hydroxyethyl]-4-methyl-7-oxo-1-azabicyclo[3.2.0]hept-2-ene-2-carboxylic acid]	–	–	not sufficiently stable
